Results on 8 compounds are retold here after US20030083227A1, “Novel combination therapy to treat glaucoma” (priority 1999, published 2003).

Experiment [1] relates to mouse IOP. As to the kind of experiment: Mouse IOP measured with the Servo-Null Micropipette System (SNMS). Type of experiment: in vivo. The note with it: for ΔIOP (after 1st drug): vs previous period; for effect on IOP: alone; for ΔIOP after base (1st drug): sequential study; for minimally effective droplet concentration: lowering of mouse IOP. Here is the method:
Black Swiss outbred mice of mixed sex, 7 to 9 weeks old and approximately 30 g in weight, were obtained from Taconic, Inc. (Germantown, N.Y.). Animals were housed in accordance with National Institutes of Health recommendations, maintained under a 12-hour light-dark illumination cycle, and allowed unrestricted access to food and water. IOP measurements were performed at the same time of day (2-6 PM) to minimize diurnal effects on IOP. All procedures conformed to the ARVO Statement for the Use of Animals in Ophthalmic and Vision Research.
Before all IOP measurements, mice received general anesthesia in the form of intraperitoneal ketamine (250 mg/kg), supplemented by topical proparacaine HCl (0.5%; Allergan, Hormigueros, Puerto Rico). After reaching a stable plane of anesthesia confirmed by absent response to foot pinch, the mice were secured in a surgical stereotaxic device (David Kopf Instruments, Tujunga, Calif.), with the head positioned to avoid any pressure on the animal that could affect IOP. A heating pad at 37° C. (Delta Phase Isothermal Pad, Braintree Scientific, Braintree, Mass.) maintained body temperature. Topical proparacaine supplemented general anesthesia, and corneal dehydration was prevented by topical normal saline (309 mOsm), as necessary. The ground electrode was placed on the conjunctiva of the same or the contralateral eye, carefully avoiding any pressure on the eye.
IOP was measured with the Servo-Null Micropipette System (SNMS), an electrophysiologic, nonmanometric method of measuring pressure, previously adapted and validated for measuring IOP in the mouse (Avila et al., 2001A). The exploring, 5-μm micropipette was filled with 3 M KCl solution to ensure that the resistance of the fluid within the tip was much lower than that of the extracellular fluid. The resistance to electrical flow through the micropipette was continuously monitored and was dominated by the electrical resistance at the tip.
After entry of the tip into the anterior chamber, the step change in hydrostatic pressure forced aqueous humor into the micropipette, displacing the low-resistance 3-M KCl filling solution from the tip back toward the shank. The resultant increase in electrical resistance generated a signal to a vacuum-pressure pump that produced an equal counter-pressure that maintained the position of the aqueous humor-KCl interface at the tip of the micropipette, and thus sustains the original electrical resistance. This counter-pressure equaled the hydrostatic pressure outside the micropipette tip, in this instance the IOP. […] Before every measurement, the system was calibrated externally against a mercury manometer in the range from 0 to 50 mm Hg at 5- to 10-mm Hg intervals.
The micropipettes were fabricated from borosilicate glass (1.5 mm outer diameter, 0.84 mm inner diameter, WPI) with a puller (Sutter Instruments, San Rafael, Calif.). The tips were beveled to an outer diameter of 5 μm and a 45° angle with a micropipette beveler (Sutter).
Using the SNMS as described above, the micropipette tip was next placed in the drop of proparacaine on the cornea overlying the pupil of the subject, and the output reading from the SNMS was adjusted to zero. The micropipette was then advanced across the cornea (at 20-30° to the optical axis) into the anterior chamber by a cell-penetration positioning system (model LSS 21200; Burleigh Instruments, Inc., Fishers, N.Y.) and a piezoelectric step driver (model PZ100; Burleigh). IOP was monitored after positioning the micropipette tip in the aqueous humor. The baseline IOP in the present study was 14.2±0.4 mm Hg (n=113). In measuring drug-induced changes in IOP, each animal served as its own series control. All pressures after drug application were compared with those just before the drug was added.
To determine an individual IOP reading, the mean±SEM was calculated during a 3- to 5-minute recording period. Numbers of experiments or eyes are indicated by the symbol n. […]

The subject of experiment [2] is PE cells. Description: Regulatory volume increase (post-RVD RVI) of PE cells, volumetric measurements. In kind it is cell-based, bovine. The procedure: Volumetric measurements were also performed to confirm that these antiports could function in parallel to transfer solution from the extracellular space into the cells.
Since paired Na^+/H^+ and Cl^−/HCO3^− exchangers were known to contribute to the regulatory volume increase (RVI) in many other cells (Hoffmann, Curr Top Membr Transp 30:125-180 (1987)), the regulatory volume increase in the PE cells was examined. However, the secondary RVI was not observed in the PE cells at room temperature. Consequently, the volumetric experiments were conducted at 34-37° C.
The precise time course of the baseline RVI was variable, so that the data of some experiments were better fit to an exponential expression, and others to a linear expression (filled circles, FIG. 2C). […] Secondary RVI was inhibited either by blocking the Na^+/H^+ antiport with 10 μM dimethylamiloride, or by omitting CO2/HCO3^− from the external solution.
Inhibitors were added at the same time that isotonicity was restored (t=24 min).

Another experiment concerns NHE-1. The note with it: cited from earlier work.
The subject of experiment [3] is PE cells. The settings on record: applied to PE cells; cited from earlier work.
The test system of experiment [4] is mouse IOP. The settings on record: cited from earlier work.
In experiment [5] the test system is PE cells. Description: Potency of Na+/H+ antiport inhibitors applied to PE cells. Type of experiment: cell-based. The settings on record: amiloride : EIPA. Here is the method: Carbonic anhydrase inhibition reduces the rate of production of H^+ and HCO3^−, which in turn must slow the rate of delivery of H^+ and HCO3^− to all cell sites, including the antiports. […] To reach a 10-mM concentration, it was necessary to solubilize the amiloride in 30% DMSO. […] Thus, at a concentration 10 times higher than EIPA's minimal effective concentration, amiloride had no effect, consistent with the known ratio of the potency of these inhibitors (3.9:0.07 μM, or ˜56) when applied to PE cells.

Where [6] appears, read: single drug, topical 10-μL droplet, 100 μM.
Where [7] appears, read: single drug, topical 10-μL droplet, 1 mM.
The mark [8] stands for this setting: 1st drug 1 mM topical, vs baseline.
[9] abbreviates: single drug, topical 10-μL droplet, 3 mM.

Take `CCCCNc1cc(C(=O)O)cc(S(N)(=O)=O)c1Oc1ccccc1` [Bumetanide]: in the experiment on mouse IOP [1] (10 mM alone, 4 mice), the “change in IOP” value is −1.0±1.1 mm Hg. Besides, the “reduction of IOP” value in the experiment on mouse IOP [1] (10 mM bumetanide after topical ethylisopropyl-amiloride, N=6) is listed as 4.0±0.6 mm Hg. The “ΔIOP (after 1st drug)” value with mouse IOP [1] (2nd drug 10 mM (36.4 μg) after 1 mM BIIB) is recorded as −3.9 ± 0.9 mm Hg; in the experiment with mouse IOP [1] (2nd drug 10 mM (36.4 μg) after 1 mM DMA), −3.8 ± 0.7 mm Hg; in the experiment on mouse IOP [1] (2nd drug 10 mM (36.4 μg) after 1 mM EIPA) it was −4.0 ± 0.6 mm Hg; with mouse IOP [1] (2nd drug 10 mM (36.4 μg) after 55.5 mM dorzolamide), −3.9 ± 1.0 mm Hg. Further, the “effect on IOP” value is “had no significant effect on IOP” in the experiment on mouse IOP [1] (N=8, 10 uM-10 mM concentrations in topical drops) and “had no significant effect on IOP” in the experiment on mouse IOP [1] (droplet concentrations of 0.1 to 10 mM (364 ng to 36.4 μg)). Further, the ΔIOP is on record as −0.8 ± 0.7 mm Hg in the experiment with mouse IOP [1] (setting [6]); −0.7 ± 1.6 mm Hg in the experiment on mouse IOP [1] (setting [7]); −1.2 ± 0.6 mm Hg in the experiment on mouse IOP [1] (single drug, topical 10-μL droplet, 10 mM). In addition, the “effect on RVI” value in the experiment on PE cells [2] (10 μM, added when isotonicity restored, N=9) was “did not inhibit the RVI”; with PE cells [2] (alone, in the nominal absence of CO2/HCO3−, P<0.01) it was “substantially inhibited the RVI”.
With `O=S(=O)(O)c1cc(N=C=S)ccc1C=Cc1ccc(N=C=S)cc1S(=O)(=O)O` [DIDS, 4,4′-diisothiocyanatostilbene-2,2′-disulfonic acid], in the experiment on PE cells [2] (500 μM, added when isotonicity restored, N=3), the “effect on RVI” value is listed as “did not inhibit the RVI”.
Turning to `CN(C)c1nc(N)c(C(=O)N=C(N)N)nc1Cl` [DMA, dimethylamiloride], the “ΔIOP after base (1st drug)” value with mouse IOP [1] (setting [8]) is reported as −4.0 ± 0.8 mm Hg. For the same compound, the ΔIOP result in the experiment on mouse IOP [1] (setting [6]) is “+0.9 ± 0.9 mm Hg”; with mouse IOP [1] (setting [9]), −5.0 ± 0.7 mm Hg. Also, the “reduction of IOP of the treated eye” value in the experiment with mouse IOP [1] (single drug, topical, 1 mM) is 3.8±0.5 mm Hg. Besides, in the experiment on mouse IOP [1] (single drug, topical, 3 mM), the “lowering of IOP” value was determined as 5.0±0.7 mm Hg. Moreover, the “minimally effective droplet concentration” value with mouse IOP [1] (topical) turned out to be 1 mM. In addition, the “effect on secondary RVI” value with PE cells [2] (10 μM, 34-37° C.) was “inhibited”.
Turning to `CCN[C@H]1C[C@H](C)S(=O)(=O)c2sc(S(N)(=O)=O)cc21` [Dorzolamide], the “ΔIOP after base (1st drug)” value in the experiment with mouse IOP [1] (1st drug 55.4 mM (200 μg), series followed by BIIB, n=7) is −3.5 ± 0.9 mm Hg; with mouse IOP [1] (1st drug 55.5 mM (200 μg), series followed by bumetanide, n=4) it was −2.0 ± 0.4 mm Hg. For the same compound, the ΔIOP in the experiment on mouse IOP [1] (single drug, topical 10-μL droplet, 55.4 mM (200 μg)) is −2.9 ± 0.6 mm Hg; in the experiment with mouse IOP [1] (single drug, topical 10-μL droplet, 55.4 mM (200 μg), listed as dorzolamide) it was “reduces IOP”.
Consider `CCN(c1nc(N)c(C(=O)NC(=N)N)nc1Cl)C(C)C` [EIPA, ethylisopropylamiloride], for which, in the experiment with mouse IOP [1] (setting [8]), the “ΔIOP after base (1st drug)” value is reported as −2.4 ± 0.6 mm Hg. For the same compound, the ΔIOP entry with mouse IOP [1] (setting [6]) was “+0.8 ± 0.2 mm Hg”; in the experiment with mouse IOP [1] (setting [7]), −2.6 ± 0.5 mm Hg; in the experiment on mouse IOP [1] (setting [9]), −4.1 ± 1.0 mm Hg. For the same compound, the “lowering of IOP” value with mouse IOP [1] (single drug, topical, 3 mM) came to 4.1±1.0 mm Hg. Also, the “minimally effective droplet concentration” value in the experiment on mouse IOP [1] (topical) is 1 mM. Further, the half-maximal inhibitory concentration (IC50) with NHE-1 (Scholz et al. 1995) is 50 nM. Also, the potency in the experiment with PE cells [3] is 70 nM.
`CC(=O)Nc1nnc(S(N)(=O)=O)s1` [acetazolamide]: the “lowering of mouse IOP” value in the experiment with mouse IOP [4] (intraperitoneal) is 11.9±1.3 mm Hg.
Turning to `Nc1ncnc2c1ncn2[C@@H]1O[C@H](CO)[C@@H](O)[C@H]1O` [adenosine], in the experiment on mouse IOP [4] (100 μM, unilateral topical application), the “effect on IOP in the contralateral eye” value is “does not alter”.
`N=C(N)NC(=O)c1nc(Cl)c(N)nc1N` [amiloride]: the ΔIOP in the experiment with mouse IOP [1] (10 mM in 30% DMSO, after pretreatment with vehicle containing 30% DMSO, n=4) is listed as 1.0±0.7 mm Hg; in the experiment on mouse IOP [1] (setting [7]) it was “no significant effect on mouse IOP”. Also, in the experiment with PE cells [5], the “ratio of the potency of these inhibitors” value is ~56. In the experiment on NHE-1 (Counillon et al., 2000), the “potency at NHE-1 antiports lower than the amiloride analogues DMA and EIPA” value is reported as 1 to 2 orders of magnitude. The potency in the experiment with PE cells [3] was 3900 nM.

Usually IC50 stands for the concentration that gives 50% inhibition.
